The results in this text go back to PubChem BioAssay AID1205 (EPA DSSTox, 2008).

The source made the active and inactive calls.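 How the source made its calls: active means tumour findings in long-term animal cancer tests in more than one sex, species or organ; inactive means no tumour finding and more than one negative test.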 Where a SMILES comes first, the peptide text is derived from it.

A short description of the series: DSSTox (CPDBAS) Carcinogenic Potency Database Summary MultiCellCall Results. To be noted: animal carcinogenicity bioassays, multi-cell call summary. The text has this: The Carcinogenic Potency Database (CPDB) is a unique and widely used international resource of the results of over 6500 chronic, long-term animal cancer tests on over 1500 chemical substances. The CPDB provides easy access to the bioassay literature, with qualitative and quantitative analyses of both positive and negative experiments that have been published over the past 50 years in the general literature and by the National Cancer Institute/National Toxicology Program. The CPDB standardizes the diverse literature of cancer bioassays that vary widely in protocol, histopathological examination and nomenclature, and in the published author's choices of what information to provide in their papers. Results are reported in the CPDB for tests in rats, mice, hamsters, dogs, and nonhuman primates, and are based on the most positive result among all experiments for each sex-species. The DSSTox CPDBAS (all species) file incorporates data from the CPDB Summary Tables for the full list of over 1500 chemical substances tested in at least one species. A summary MultiCellCall, based on experimental bioassay results of one or more species, is provided in the DSSTox CPDBAS file (see Source URL) for more than 1150 chemical substances.
Associated TD50 values and tumor site details for the relevant species/sex experiment supporting the overall CPDBAS MultiSiteCall are provided in the full DSSTox CPDBAS file (see Comment) and the corresponding CPDBAS Species Bioassay in PubChem. ActivityScore is computed as follows: multispecies=50, multisex=30, multisite=20, with combination scores computed as sums of these values, e.g. multispecies+multisite=70.
For `Nc1ccc2oc3ccccc3c2c1`, the outcome was “active; multisite active; multisex active”.

Regarding `Cc1cc(N=Nc2c(O)ccc3ccccc23)c(S(=O)(=O)O)cc1Cl`, the outcome was “active; multisite active”. Turning to `CC(N)=S`, the outcome was “active; multisex active; multispecies active”. Next, `C/C=C/C=C/C(=O)O`: “inactive; multisex inactive; multispecies inactive”. Next, `C[C@@H]1CCC[C@H](C)N1CCCC(O)(c1ccccc1)c1ccccn1` (stereo partly drawn): “inactive; multisex inactive; multispecies inactive”.

For `Cc1nc(N)cc2[nH]c3ccccc3c12`, the outcome was “active; multisite active; multisex active; multispecies active”. For `Cc1[nH]cnc1CSCCN=C(NC#N)N(C)N=O` the value was “inactive; multisex inactive; multispecies inactive”; for `c1ccccc1`, “active; multisite active; multisex active; multispecies active”.

As for `O.O.O.O.O.O.O.O.O=S(=O)([O-])[O-].O=S(=O)([O-])[O-].O=S(=O)([O-])[O-].[Cd+2].[Cd+2].[Cd+2]`, the outcome was “inactive; multispecies inactive”. With `NCCCC(N)(C(=O)O)C(F)F` (stereo not drawn), the outcome is “inactive; multisex inactive”. Next, `CN1[C@@H]2CC(OC(=O)[C@@H](CO)c3ccccc3)C[C@H]1[C@@H]1O[C@@H]12` (stereo partly drawn): “inactive; multisex inactive; multispecies inactive”. For `Brc1cc(Br)c(-c2cc(Br)c(Br)cc2Br)cc1Br` the value was “active; multisex active; multispecies active”; for `COc1ccc(CCN2CCC(Nc3nc4ccccc4n3Cc3ccc(F)cc3)CC2)cc1`, “inactive; multisex inactive; multispecies inactive”; for `CN(C)C(=O)Nc1ccc(Cl)cc1`, “active; multisite active”. Take `O=C(O)c1cccnc1`: the outcome is “inactive; multisex inactive”. Next, `O=C1C2(Cl)C3(Cl)C4(Cl)C(Cl)(Cl)C5(Cl)C3(Cl)C1(Cl)C5(Cl)C24Cl` (stereo not drawn): “active; multisex active; multispecies active”.

On to `O=C(O)c1[nH]n(-c2ccc(S(=O)(=O)O)cc2)c(=O)c1N=Nc1ccc(S(=O)(=O)O)cc1`, for which the outcome is “inactive; multisex inactive; multispecies inactive”.

In the case of `CN(C)C(=O)Nc1cccc(C(F)(F)F)c1`, the outcome was “inactive; multisex inactive; multispecies inactive”. Regarding `Oc1ccc2c(c1)OCO2`, the outcome was “active; multisex active; multispecies active”. Next, `c1ccc2ccccc2c1`: “active; multisite active; multisex active; multispecies active”; `NC(N)=Nc1nc(CSCCNc2nsnc2N)cs1`: “active; multisex active”; `CCCCCCCCCCCCCCCC(=O)OC/C=C(C)/C=C/C=C(C)/C=C/C1=C(C)CCCC1(C)C`: “inactive; multispecies inactive”. For `CCC[CH2][Sn]([CH2]CCC)([CH2]CCC)[O][Sn]([CH2]CCC)([CH2]CCC)[CH2]CCC` the value was “inactive; multisex inactive”. For `c1ccc2cc(Nc3ccc(Nc4ccc5ccccc5c4)cc3)ccc2c1` the value was “inactive; multisex inactive”; for `COc1ccc(OC)c(/C=C/c2ccc(N)cc2)c1`, “active; multisite active; multispecies active”.

`Cn1c(=O)c2[nH]cnc2n(C)c1=O`: the outcome was “inactive; multisex inactive; multispecies inactive”. For `O=C1O[C@H]([C@@H](O)CO)C(O)=C1O` the value was “inactive; multisex inactive; multispecies inactive”; for `Cc1ccccc1`, “active; multisite active; multisex active”; for `CN(C)C(=S)S[Se](SC(=S)N(C)C)(SC(=S)N(C)C)SC(=S)N(C)C`, “inactive; multisex inactive”. Next, `CN(CC(O)CO)N=O` (stereo not drawn): “active; multisite active; multispecies active”. Regarding `OCC(CO)N[C@H]1C[C@](O)(CO)[C@@H](O)[C@H](O)[C@H]1O`, the outcome was “inactive; multisex inactive; multispecies inactive”.

On to `CN(N=O)c1ncnc2c1ncn2[C@@H]1O[C@H](CO)[C@@H](O)[C@H]1O`, for which the outcome was “active; multisite active; multisex active”. With `CN(C)/N=N/c1nc[nH]c1C(N)=O`, the outcome is “active; multisite active; multisex active; multispecies active”.

As to `N`, the outcome is “inactive; multisex inactive”.

For the compound `CCCCNC(=O)NS(=O)(=O)c1ccc(C)cc1`, the outcome is “inactive; multisex inactive; multispecies inactive”. Take `O=P1(N(CCCl)CCCl)NCCCO1` (stereo not drawn): the outcome is “active; multisite active; multisex active; multispecies active”.

Take `ClC(Cl)=C(Cl)Cl`: the outcome was “active; multisite active; multisex active; multispecies active”. On to `Nc1cc(Cl)c(N)c(Cl)c1`, for which the outcome was “active; multisex active”. Next, `S=[Se]`: “active; multisite active; multisex active; multispecies active”; `Cc1ccc2c(c1)C(N1CCN(C)CC1)=Nc1ccccc1S2`: “inactive; multisex inactive”. For `COP(=S)(OC)Oc1ccc(SC)c(C)c1` the value was “inactive; multisex inactive; multispecies inactive”. For `C=CCO` the value was “inactive; multisex inactive”; for `Oc1ccc2ccccc2c1N=Nc1ccccc1`, “active; multisex active”. For `CCSCCC(N)C(=O)O` (stereo not drawn), the outcome is “active; multisex active; multispecies active”.

Consider `S=C(NC1CCCCC1)NC1CCCCC1`, for which the outcome was “inactive; multisex inactive; multispecies inactive”. For the compound `Brc1cc(Br)c(-c2c(Br)c(Br)c(Br)c(Br)c2Br)c(Br)c1Br`, the outcome was “active; multisex active”. Next, `C=Cc1ccccc1`: “active; multisite active; multisex active; multispecies active”; `COC(=O)[C@H](Cc1ccccc1)NC(=O)[C@@H](N)CC(=O)O` (H-Asp-Phe-OMe): “inactive; multisex inactive”.

Turning to `CC[C@H](OC(C)=O)C(C[C@H](C)N(C)C)(c1ccccc1)c1ccccc1`, the outcome was “active; multisex active”. For `COc1cc2c(c3c1c(=O)c1ccccc1n3C)C=CC(C)(C)O2` the value was “active; multisite active; multisex active”. As to `C1N2CN3CN1CN(C2)C3`, the outcome was “inactive; multisex inactive; multispecies inactive”. For `Cc1ccc(N)cc1` the value was “active; multisex active”. On to `Nc1c(Cl)cc(Cl)cc1Cl`, for which the outcome is “active; multisite active”. For `CCCCCCCCCCC(C)c1ccc(S(=O)(=O)O)cc1` (stereo not drawn) the value was “inactive; multisex inactive”; for `CC1SC(C)N(N=O)C(C)S1` (stereo not drawn), “active; multisite active”. Next, `O=c1cc[nH]c(=S)[nH]1`: “active; multisite active; multisex active; multispecies active”; `Nc1cc(S(=O)(=O)[O-])cc2cc(S(=O)(=O)[O-])c(N=Nc3ccc(-c4ccc(N=Nc5c(S(=O)(=O)[O-])cc6cc(S(=O)(=O)[O-])cc(N)c6c5O)c(O)c4)cc3O)c(O)c12.[Cu].[Cu].[Na+].[Na+].[Na+].[Na+]`: “active; multisite active; multisex active; multispecies active”; `CC(=O)Nc1ccc2c(c1)Cc1ccccc1-2`: “active; multisite active; multisex active; multispecies active”. Turning to `Clc1ccc2c(c1)Oc1ccc(Cl)cc1O2`, the outcome was “inactive; multisex inactive; multispecies inactive”. For `CCc1ccc(C(c2ccc(CC)cc2)C(Cl)Cl)cc1` the value was “inactive; multisex inactive; multispecies inactive”; for `C[C@H]([C@H](O)CCC(C)(C)O)[C@H]1CC[C@@]2(O)C3=CC(=O)[C@@H]4C[C@@H](O)[C@@H](O)C[C@]4(C)[C@H]3CC[C@]12C`, “active; multisite active; multisex active”. On to `CC(COc1ccccc1)N(CCCl)Cc1ccccc1` (stereo not drawn), for which the outcome was “active; multisex active; multispecies active”. For `O=c1[nH]cc(F)c(=O)[nH]1` the value was “active; multisite active; multisex active”. As for `COc1ccc([C@@H]2CC(=O)c3c(O)cc(O[C@@H]4O[C@H](CO[C@@H]5O[C@@H](C)[C@H](O)[C@@H](O)[C@H]5O)[C@@H](O)[C@H](O)[C@H]4O)cc3O2)cc1OC`, the outcome was “inactive; multisex inactive”. Consider `O=[N+]([O-])c1ccccc1`, for which the outcome is “active; multisite active; multisex active; multispecies active”. Regarding `CC(O)CN(CC(O)CO)N=O` (stereo not drawn), the outcome was “active; multisite active; multispecies active”.

On to `O=c1c(O)c(-c2ccc(O)cc2)oc2cc(O)cc(O)c12`, for which the outcome is “inactive; multisex inactive”. Regarding `N[C@@H](Cc1c[nH]c2ccccc12)C(=O)O`, the outcome is “inactive; multisex inactive; multispecies inactive”.

In the case of `Cn1c(N)nc2ncc(-c3ccccc3)cc21`, the outcome is “active; multisite active; multisex active; multispecies active”. In the case of `COC(=O)[C@H]1[C@H]2C[C@@H]3c4[nH]c5cc(OC)ccc5c4CCN3C[C@H]2C[C@@H](OC(=O)c2cc(OC)c(OC)c(OC)c2)[C@@H]1OC`, the outcome is “active; multisite active; multisex active; multispecies active”.

For `COc1ccc2c3c1O[C@H]1[C@@H](O)C=C[C@H]4[C@@H](C2)N(C)CC[C@@]341`, the outcome is “inactive; multisex inactive; multispecies inactive”. With `CCN(C)N=O`, the outcome is “active; multisite active”. For `CN(C)CCN(C)N=O` the value was “active; multisite active; multisex active”.
